Where two headings read alike, the source gives them in different places.
Legend:
SARS-CoV-2 [1] = type: cell-based
SARS-CoV-2 [2] = type: cell-based; details: A549/ACE2 cells
[3] = Vero E6 cells, tested range 80 nM to 10 μM, two repeats

Compound: GC376 [reference compound]
- concentration at which SARS-CoV-2-induced CPE was completely abolished (SARS-CoV-2 [1]): 10 µM

Compound: CC(OC(C)(C)C)[C@H](NC(=O)OCc1ccccc1)C(=O)N[C@@H](Cc1ccccc1)C(=O)N[C@H](C=O)C[C@@H]1CCNC1=O (stereo partly drawn) [MPI7]
- concentration at which SARS-CoV-2-induced CPE was completely abolished (SARS-CoV-2 [1]; [3]): 2.5 to 5 µM
- complete abolition of CPE / potency (in words) (SARS-CoV-2 [2]; tested range 80 nM to 10 μM): not able to completely abolish CPE at all tested conditions

Compound: CC(C)C[C@H](NC(=O)[C@@H](NC(=O)OCc1ccccc1)C(C)C)C(=O)N[C@H](C=O)C[C@@H]1CCNC1=O [MPI3]
- complete prevention of CPE (in words) (SARS-CoV-2 [1]; Vero E6 cells, tested range 80 nM to 10 μM): not able to completely prevent CPE at all tested concentrations

Compound: O=C[C@H](C[C@@H]1CCNC1=O)NC(=O)[C@H](CC1CCCCC1)NC(=O)c1cc2ccccc2[nH]1 [11a, reference compound]
- concentration at which SARS-CoV-2-induced CPE was completely abolished (SARS-CoV-2 [1]; [3]): 10 µM

Compound: O=C[C@H](C[C@@H]1CCNC1=O)NC(=O)[C@H](Cc1ccccc1)NC(=O)/C=C/c1ccc(Cl)cc1F [MPI2]
- concentration at which SARS-CoV-2-induced CPE was completely abolished (SARS-CoV-2 [1]; [3]): 10 µM

Compound: CC(C)[C@H](NC(=O)OCc1ccccc1)C(=O)N[C@@H](CC1CCCCC1)C(=O)N[C@H](C=O)C[C@@H]1CCNC1=O [MPI5]
- concentration at which SARS-CoV-2-induced CPE was completely abolished (SARS-CoV-2 [1]; [3]): 5 µM
- concentration for complete prevention of SARS-CoV-2-induced CPE (SARS-CoV-2 [2]; as stated in abstract): 0.16 to 0.31 µM
- concentration for complete abolition of CPE (SARS-CoV-2 [2]; tested range 80 nM to 10 μM): 160 to 310 nM

Source: publication PMC7979488 (ChemMedChem, 2020)
